Assay results reported in US20040162428A1, “6-(2,6-difluorophenyl)-triazolopyrimidines as fungicides” (priority 2001, published 2004).

System: Botrytis cinerea
Assay: Comparison trial: control of gray mould (Botrytis cinerea) on fruit slices of green pepper
Type: in vivo
Conditions: green pepper fruit slices sprayed with 500 ppm, inoculated after 2 hours, incubated four days at 18-20° C.; untreated infected to 100%
Text: The active compounds, separately or together, were formulated as a 10% emulsion in a mixture of 70% by weight of cyclohexanone, 20% by weight of Nekanil® LN (Lutensol® AP6, wetting agent having emulsifying and dispersant action based on ethoxylated alkylphenols) and 10% by weight of Wettol® EM (nonionic emulsifier based on ethoxylated castor oil) and diluted with water to the desired concentration. Comparison trial—Control of gray mould (Botrytis cinerea) on fruit slices of green pepper Fruit slices of green pepper were sprayed to run-off with an aqueous suspension, containing the concentration of active ingredient or their mixture mentioned in the table below, prepared from a stock solution containing 10% of the active ingredient; 85% cyclohexanone and 5% emulsifier. After 2 hours the sprayed-on layer had dried, the disks were inoculated with a spore suspension of Botrytis cinerea containing 1,7×10^6 spores per ml in 2 wt. % aqueous biomalt solution. The infected fruit slices were then incubated in chambers with high humidity for four days at 18-20° C. The fruit slice area under fungal attack was then assessed visually in percent.

Row | SMILES | infection (fruit slice area under fungal attack in percent)
1 | CC(Nc1c(-c2c(F)cccc2F)c(Cl)nc2ncnn12)C(F)(F)F (centres unmarked) [B] | 20%
2 | Fc1cccc(F)c1-c1c(Cl)nc2ncnn2c1NCC(F)(F)F [A] | 100%
